The source of these data is paper PMC6754304 (Cell, 2019).

The target of this assay is S. cerevisiae HSP90 (HSP82) (Saccharomyces cerevisiae, UniProt P02829).

Structures are written as SMILES.

Chain of S. cerevisiae HSP90 (HSP82) (P02829 whole entry): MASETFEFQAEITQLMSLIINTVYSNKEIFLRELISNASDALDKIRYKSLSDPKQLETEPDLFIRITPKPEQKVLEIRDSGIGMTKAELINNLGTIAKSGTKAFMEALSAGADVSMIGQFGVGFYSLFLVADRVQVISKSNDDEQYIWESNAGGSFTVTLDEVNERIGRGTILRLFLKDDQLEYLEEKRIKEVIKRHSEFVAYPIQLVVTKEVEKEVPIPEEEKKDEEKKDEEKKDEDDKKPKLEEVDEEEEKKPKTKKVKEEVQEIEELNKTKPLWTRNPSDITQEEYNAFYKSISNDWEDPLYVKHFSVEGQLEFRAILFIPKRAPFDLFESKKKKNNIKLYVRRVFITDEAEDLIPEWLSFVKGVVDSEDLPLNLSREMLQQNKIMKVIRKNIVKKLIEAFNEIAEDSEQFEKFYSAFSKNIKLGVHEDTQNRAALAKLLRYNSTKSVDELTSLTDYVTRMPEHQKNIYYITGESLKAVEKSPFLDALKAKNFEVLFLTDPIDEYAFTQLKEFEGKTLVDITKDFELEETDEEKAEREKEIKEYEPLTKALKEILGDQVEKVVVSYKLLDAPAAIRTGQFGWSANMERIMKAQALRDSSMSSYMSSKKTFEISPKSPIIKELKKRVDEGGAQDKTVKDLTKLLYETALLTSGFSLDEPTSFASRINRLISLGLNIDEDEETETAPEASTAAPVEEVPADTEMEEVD

Take `Nc1ncnc2c1ncn2[C@@H]1O[C@H](COP(=O)(O)OP(=O)(O)OP(=O)(O)O)[C@@H](O)[C@H]1O` [ATP]: the ATPase activity result is recorded as “assayed by measuring free phosphate release from ATP using the Malachite Green method”.
